{
  "source": "patent EP2292242B1",
  "about": "“A SCUTELLARIN DERIVATIVE, THE PREPARING PROCESS, THE PHARMACEUTICAL COMPOSITION AND THE USE THEREOF” (Kunming Pharmaceutical Corp., priority 2008, dated 2009)",
  "key": {"[1]": {"tested_on": "focal cerebral ischemia induced by MCAO (middle cerebral artery occlusion) in rats", "assay": "focal cerebral ischemia induced by MCAO (middle cerebral artery occlusion) in rats", "type": "in vivo, SD rat", "settings": "induced by ADP-2Na, final concentration of ADP, turbidimetry; 50mg/kg gavage once daily for 5 days; X±SD", "experimental": "Male SD rats, weighing 240~290g, grouping and dosages were as above. Additionally, a positive control group, i.e., nimodipine 50mg/kg group was set up. Animals of each group were gavage once daily for consecutive 5 days in predetermined dosage. At 30 minute after the last administration, the animals were anesthetized with 12% chloral hydrate in 350 mg/kg via intraperitoneal injection. The animals were kept left lateral position and the skin was cut along the middle point between right ear and eye line. Temporalis was separated and cheekbone was sheared. A holl was drilled with a dental drill in front of zygomatic root and MCA was exposed. […]\nThe animals were scored on neurological functions at 6 hour and 24 hour after modeling, according to behavior such as movement. […]\n24 hour after modeling and after neurological scoring, blood was taken via carotid artery intubation in duplicate. For one sample, serum was separated and the activity of AST and LDH was determined according to the method of the kit; for another sample, it was treated with 3.8% sodium citrate in 1:9 for the purpose of anticoagulation, centrifuged at 1000rpm for 5 minutes to prepare platelet rich plasma (PRP), and centrifuged at 3500rpm for 10 minutes to prepare platelet poor plasma (PPP). […]"}, "[2]": {"assay": "comparative study on solubilities (China Pharmacopeia 2005 terms)", "type": "physicochemical", "settings": "terms per China Pharmacopeia 2005"}, "[3]": {"settings": "background statement; cited from earlier work"}},
  "data": [
    {"compound": "COCCOC(=O)C1=C(C)NC(C)=C(C(=O)OC(C)C)C1c1cccc([N+](=O)[O-])c1", "note": "(stereo not shown) [nimodipine, reference compound]", "values": [
      {"measurement": "rate of platelet aggregation", "setting": "[1]", "result": "54.15±7.76", "unit": "%"}
    ]},
    {"compound": "O=C(O)[C@H]1O[C@@H](Oc2cc3oc(-c4ccc(O)cc4)cc(=O)c3c(O)c2O)[C@H](O)[C@@H](O)[C@@H]1O", "note": "[scutellarin]", "values": [
      {"measurement": "solubility in 0.01NNaOH", "setting": "[2]; 0.01NNaOH", "result": "soluble"},
      {"measurement": "solubility in 95%EtOH", "setting": "[2]; 95%EtOH", "result": "slightly soluble"},
      {"measurement": "solubility in H2O", "setting": "[2]; H2O", "result": "very slightly soluble"},
      {"measurement": "solubility in MeOH", "setting": "[2]; MeOH", "result": "slightly soluble"},
      {"measurement": "solubility in n-BuOH", "setting": "[2]; n-BuOH", "result": "slightly soluble"},
      {"measurement": "solubility in water", "setting": "[3]", "result": "sparingly soluble"}
    ]}
  ]
}
